ChEMBL document CHEMBL3616396, “Integrated kinetic studies and computational analysis on naphthyl chalcones as mushroom tyrosinase inhibitors” (Bioorg Med Chem Lett, 2015)
Activity calls are given as the source filed them. The rule behind the calls is not given here.

What was measured:
Tyrosinase [1] = target: T1, Tyrosinase (Agaricus bisporus, UniProt O42713)
T1 sequence (O42713 whole entry): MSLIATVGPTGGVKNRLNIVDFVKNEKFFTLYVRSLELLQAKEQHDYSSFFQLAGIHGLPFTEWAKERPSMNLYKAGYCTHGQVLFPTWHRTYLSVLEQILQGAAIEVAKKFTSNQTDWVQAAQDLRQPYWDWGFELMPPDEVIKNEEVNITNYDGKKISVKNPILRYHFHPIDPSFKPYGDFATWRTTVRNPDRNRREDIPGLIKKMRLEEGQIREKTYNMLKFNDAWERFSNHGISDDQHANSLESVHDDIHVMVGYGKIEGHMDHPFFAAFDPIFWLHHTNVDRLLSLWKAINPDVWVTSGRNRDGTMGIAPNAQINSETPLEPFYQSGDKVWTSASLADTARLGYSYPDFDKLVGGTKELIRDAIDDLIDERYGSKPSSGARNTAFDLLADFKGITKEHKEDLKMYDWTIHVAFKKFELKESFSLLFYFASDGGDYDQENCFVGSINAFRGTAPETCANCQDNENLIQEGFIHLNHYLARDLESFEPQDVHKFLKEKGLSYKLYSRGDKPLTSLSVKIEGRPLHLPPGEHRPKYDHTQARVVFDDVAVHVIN
Description: Inhibition of mushroom tyrosinase assessed as reduction in L-DOPA oxidase activity using L-DOPA substrate at 5 uM by Dixon plot

[2] = target: T2, Tyrosinase (Agaricus bisporus) (UniProt O42713); experiment: Competitive inhibition of mushroom tyrosinase assessed as reduction in L-DOPA oxidase activity at 0.15 mM to 0.6 mM using L-DOPA substrate by Lineweaver-Burk plot
T2 sequence (whole entry): T1 sequence (O42713 whole entry)

Tyrosinase [3] = target: T1, Tyrosinase; remark: listed apart in the source
Description: Inhibition of mushroom tyrosinase assessed as reduction in L-DOPA oxidase activity using L-DOPA substrate

Compound	Ki (Tyrosinase [1]) [µM]	inhibition [2]	IC50 (Tyrosinase [3]) [µM]
O/N=C(\C=C\c1ccccn1)c1cc2ccccc2cc1O	11.1	Active	20.2
COc1cc(/C=C/C(=N\O)c2cc3ccccc3cc2O)cc(OC)c1	28.6	Active	52.9
COc1ccc(/C=C/C(=N\O)c2cc3ccccc3cc2O)cc1OC	22.9	Active	42.3

Now those with a lower Ki (Tyrosinase [1]), led by results:

Ki (Tyrosinase [1]) [µM]	inhibition [2]	IC50 (Tyrosinase [3]) [µM]	Compound
10.6	Active	23	COc1ccc(/C=C/C(=N\O)c2cc3ccccc3cc2O)c(OC)c1
6.46	Active	12.2	O/N=C(\C=C\c1cccnc1)c1cc2ccccc2cc1O
9.4	Active	21.9	COc1ccc(OC)c(/C=C/C(=N\O)c2cc3ccccc3cc2O)c1
7.82	Active	19.5	O/N=C(\C=C\c1ccncc1)c1cc2ccccc2cc1O
